Data from paper PMC12654597, “Dawson- and Lindqvist-Type Hybrid Polyoxometalates: Synthesis, Characterization and Ca^2+-ATPase Inhibition Potential” (Molecules, 2025).
Read-outs that look alike come from different tables or passages of the source.

Columns and labels:
[1] = biological target: Ca^2+-ATPase; details: literature values for known P-type ATPase inhibitors; cited from earlier work
[2] = biological target: T1, sarcoplasmic reticulum (SR) Ca^2+-ATPase (Oryctolagus cuniculus, UniProt P04191); test: Sarcoplasmic reticulum Ca2+-ATPase activity, coupled enzyme pyruvate kinase/lactate dehydrogenase assay; format: biochemical, rabbit; details: for IC50: SR vesicles from rabbit skeletal muscle, pH 7.0, 25 °C, uncoupled activity (A23187), triplicate
T1 construct: from tissue; host or cells: rabbit skeletal muscle sarcoplasmic reticulum vesicles
T1 sequence (P04191 1-994 isoform P04191-2): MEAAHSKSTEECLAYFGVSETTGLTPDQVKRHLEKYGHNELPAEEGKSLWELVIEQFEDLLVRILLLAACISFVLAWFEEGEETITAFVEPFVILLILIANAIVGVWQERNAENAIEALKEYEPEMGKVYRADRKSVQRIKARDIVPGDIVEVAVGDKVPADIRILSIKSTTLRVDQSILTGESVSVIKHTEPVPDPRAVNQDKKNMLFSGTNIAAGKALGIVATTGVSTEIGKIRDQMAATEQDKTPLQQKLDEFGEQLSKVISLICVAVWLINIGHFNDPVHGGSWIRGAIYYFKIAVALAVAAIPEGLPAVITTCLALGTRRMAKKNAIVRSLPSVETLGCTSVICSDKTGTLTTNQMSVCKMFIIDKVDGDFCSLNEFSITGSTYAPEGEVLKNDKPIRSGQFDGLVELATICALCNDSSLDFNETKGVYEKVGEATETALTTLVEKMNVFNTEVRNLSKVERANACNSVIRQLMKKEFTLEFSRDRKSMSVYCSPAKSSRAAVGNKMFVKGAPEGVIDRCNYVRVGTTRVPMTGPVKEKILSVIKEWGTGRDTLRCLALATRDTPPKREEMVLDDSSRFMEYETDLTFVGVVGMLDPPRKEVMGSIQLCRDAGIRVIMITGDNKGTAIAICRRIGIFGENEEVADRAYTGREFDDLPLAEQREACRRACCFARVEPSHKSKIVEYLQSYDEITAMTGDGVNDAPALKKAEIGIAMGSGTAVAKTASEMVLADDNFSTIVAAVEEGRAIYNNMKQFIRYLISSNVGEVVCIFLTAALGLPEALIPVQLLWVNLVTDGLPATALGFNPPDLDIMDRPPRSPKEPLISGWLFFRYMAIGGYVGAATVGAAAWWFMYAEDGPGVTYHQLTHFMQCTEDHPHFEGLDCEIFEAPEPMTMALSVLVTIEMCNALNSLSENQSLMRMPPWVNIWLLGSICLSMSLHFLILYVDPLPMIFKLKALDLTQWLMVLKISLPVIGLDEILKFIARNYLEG
Excerpt: In order to evaluate the inhibition potential for each of the POMs compounds regarding the Ca^2+-ATPase activity, increasing concentrations of each POM and a control without the presence of the inhibitor were used in order to determine the IC50 values. For each of these assays, an absorbance versus time kinetic is obtained. In the absence of the POM, the control assay was obtained—that is, a kinetic with a higher slope, while by increasing the concentrations of the POMs, lower enzymatic kinetic slopes were found due to the inhibition of the ATPase activity (Figure S1).
Using this method, the effects of the inhibitors can be observed in real time and recorded within 2 to 5 min upon addition of the inhibitor, as described previously. […] For each compound, the equation governing the trendline of this can be solved for 50% in order to determine the IC50 value.
The sarcoplasmic reticulum vesicles (SRV) that contain the Ca^2+-ATPase was previously prepared from rabbit skeletal muscles as described elsewhere. The vesicles were suspended in 0.1 M KCl, 10 mM HEPES (pH 7.0), diluted 1:1 with 2.0 M sucrose, and frozen in liquid nitrogen for storage at −80 °C. […] Stock solutions of the POMs compounds (1 mM) were freshly prepared by dissolving the solid compound in miliQ water and keeping the solution at room temperature before use.
For carrying out the determination of Ca^2+-ATPase activity assays, the following medium was prepared: 25 mM HEPES (pH 7.0), 100 mM KCl, 5 mM MgCl2 and 50 µM CaCl2.
The experiments were performed with isolated sarcoplasmic reticulum vesicles (SRVs) previously diluted to 1 mg/mL with a sucrose concentration of 0.25 M (Figure 11). 0.8 mL of medium described above was added into a quartz cuvette. 0.42 mM phosphoenolpyruvate (PEP), 18 IU lactate dehydrogenase, 7.5 IU 155 pyruvate kinase, and 2.5 mM ATP without (control) or with increasing concentrations of POMs were added to this medium. […] The absorbance of the solution was measured spectrophotometrically at 340 nm, 25 °C, and an auto zero was performed. Subsequently, 0.25 mM NADH was added, allowing the absorbance value to stabilize to about 1.3 O.D. The assay begins after the addition of 10 μg/mL of Ca^2+-ATPase (basal activity) and one minute after ionophore A23187 (calcimycin) 4% (w/w) was added (uncoupled activity), and the kinetics followed for about 2 min in the absence or in the presence of increasing concentrations of POMs, from 0 to 15 μM for compound 1 and from 0 to 80 μM for compound 2. […]
For each experimental condition, the experiments were always performed in triplicate. Therefore, the determination of Ca^2+-ATPase activity without and with the inhibitor was made using a continuous enzymatic method using the measurement of absorbance versus time (Figure S1), as described elsewhere.

[3] = biological target: T1, sarcoplasmic reticulum (SR) Ca^2+-ATPase; details: cited from earlier work; for IC50: same experimental model, method and conditions

**Q.** For `Cc1ccc(-c2cc(C(F)(F)F)nn2-c2ccc(S(N)(=O)=O)cc2)cc1` [celecoxib], which IC50 [1] is on record?
**A.** 35 µM

**Q.** For (C2H8N1)6[V2Mo18O62].3H2O [compound 1], which IC50 [2] is on record?
**A.** 3.4 µM

**Q.** What about the “fold inhibition potential regarding ATPase activity relative to compound 2” value ([2]; ratio of IC50 values, compound 1 vs compound 2) of the same compound?
**A.** about 13 fold

**Q.** For (C4H16N3)4[V2W4O19]3.12H2O [compound 2], which IC50 [2] is on record?
**A.** 45.1 µM

**Q.** What about the “Ca^2+-ATPase inhibition potency relative to Anderson type TeW6” value ([2]; comparison of IC50 values, compound 2 vs TeW6) of the same compound?
**A.** four times more potent

**Q.** With `CC(=O)C1=C(O)[C@@H]2[C@H]3c4c[nH]c5cccc(c45)C[C@H]3C(C)(C)N2C1=O` [CPA, cyclopiazonic acid] as the compound, how does the IC50 [1] read?
**A.** 0.1 to 0.2 µM

**Q.** With `C/C=C(/C)C(=O)O[C@H]1C(C)=C2[C@H]([C@@H]1OC(=O)CCCCCCC)[C@@](C)(OC(C)=O)C[C@H](OC(=O)CCC)[C@@]1(O)[C@H]2OC(=O)[C@@]1(C)O` [TG, thapsigargin] as the compound, how does the IC50 [1] read?
**A.** 0.001 to 0.029 µM

**Q.** For `[O]=[V]([OH])([OH])[O][V]1(=[O])[O][V]2(=[O])[O][V](=[O])([O][V](=[O])([OH])[OH])[O][V](=[O])([O]2)[O][V]2(=[O])[O][V](=[O])([O][V](=[O])([OH])[OH])[O][V](=[O])([O]1)[O]2` (stereo not shown) [V10, decavanadate], which IC50 [3] is on record?
**A.** 15 µM

**Q.** With metformin-decavanadate [Metf-V10] as the compound, how does the “IC50 ATPase inhibition value relative to V10 alone” value ([3]; metformin-decavanadate vs V10) read?
**A.** six times higher

**Q.** And the IC50 [3]?
**A.** 87.4 µM
